Test results: patent US20210391038A1, “SPECIFICALLY-SHAPED CRYSTAL OF COMPOUND AND METHOD FOR PRODUCING SAME” (TOWA PHARMACEUTICAL CO., LTD., priority 2018, published 2021)
Where a name gives a salt, the structure may show the parent alone. Read-outs that look alike come from different tables or passages of the source.

Key:
Format in all cases: physicochemical
[1] = Particle density, true density and particle packing rate; conditions: trihydrate; for Particle packing rate: particle density / true density x 100
Description: “Particle density” in the present description is mass per unit volume when the volume of the substance itself as well as the volume of the open void and the closed void are included as the volume of polycrystalline particles. For example, when the polycrystalline particles are spherical particles, the particle density is calculated by the following formula using the mean mass of the polycrystalline particles and the mean volume of the polycrystalline particles:
Here, the mean mass of polycrystalline particles is calculated by measuring the number of polycrystalline particles contained in 1.0 mg or more, preferably 5.0 mg or more, and more preferably 10.0 mg or more of a sample by a scanner, etc. The mean volume of crystal particles is obtained by averaging the volume calculated by photographing 500 or more, preferably 1,000 or more, and more preferably 5,000 or more crystal particles by a light microscope, etc., using an equivalent circle diameter obtained from the projected area of polycrystalline particles, and assuming that the polycrystalline particles are true spheres. At this time, it is desirable that the distribution of the equivalent circle diameter is unimodal and the sharpness value is less than 1.5.
“Particle packing rate” of a polycrystal in the present description is a value calculated by the following formula:
Particle packing rate (%)=(particle density)/(true density of compound)×100 [Equation 8]
Here, “true density of compound” is a density of a substance itself not including a void. If no void exists at all inside or on the surface of a particle, the particle packing rate is 100%. The true density of a compound can be obtained by dry density measurement by the constant volume expansion method. Examples of the measuring device include a dry automatic densimeter AccuPyc II 1340-10CC manufactured by Shimadzu Corporation.
The particle size distribution was measured in a dry manner using a spray particle size distribution analyzer AEROTRAC LDSA-SPR3500A manufactured by Microtrac Inc. The particle size distribution in Examples 2 and 7 was measured in a dry manner using a laser diffraction particle size distribution measurement MASTERSIZER 3000 manufactured by Malvern Panalytical Ltd. SEM images were measured using a scanning electron microscope JSM-IT100 manufactured by JEOL Ltd. Light microscope images were measured using an upright microscope BX53M manufactured by Olympus Corporation and a microscope digital camera DP74 manufactured by Olympus Corporation. Images for measuring the number of particles were obtained by a scanner GT-X830 manufactured by SEIKO EPSON CORPORATION. The powder X-ray diffraction (XRD) was measured using a desktop X-ray diffraction device MiniFlex300 manufactured by Rigaku Corporation. The specific surface area was measured by the BET fluid process (gas used: pure nitrogen) using a fully automatic specific surface area measuring device Macsorb HM-1208 manufactured by Mountech Co., Ltd. The moisture content was measured using a trace moisture measuring device AQ-2200 manufactured by […] SANGYO Co., Ltd. The dissolution profile was measured using μDISS Profiler manufactured by Pion Inc. Centrifugal classification was performed using a high-efficiency precision forced air classifier Lab Calssiel N-01 manufactured by SEISHIN […] Co., Ltd. Image analysis was performed using image processing software ImageJ developed by the National Institute of Health (NIH). The particle strength was measured using a particle hardness measuring device NEW GRANO manufactured by OKADA SEIKO CO., LTD. The true density was measured using a dry automatic densimeter AccuPyc II 1340-10CC manufactured by Shimadzu Corporation. The purity of a compound was measured by a high performance liquid chromatograph (LC-20A) manufactured by Shimadzu Corporation. […]

[2] = Particle size distribution (d50, sharpness index); design: key to sharpness index of the crystal thus obtained / sharpness index of the fine powders: calculated by formula from d10, d50, d90; 1.0 = most uniform particle size
Source text: d10 in the present description is a value obtained from a particle size distribution analyzer, and represents a particle size of a particle corresponding to 10% of accumulation from the smaller particle side in the particle size distribution based on the volume.
d50 in the present description is a value obtained from a particle size distribution analyzer, and represents a particle size of a particle corresponding to 50% of accumulation from the smaller particle side in the particle size distribution based on the volume.
“Sharpness index” in the present description is an index representing the uniformity of a particle size of a particle in a powder, and a sharpness index of 1.0 represents a powder having the most uniform particle size. The closer the sharpness index is to 1.0, the more the particle size of the powder is uniform. Specifically, the sharpness index represents a value calculated using the following formula from the values of d10, d50, and d90 measured by a particle size distribution analyzer:
Images for measuring the number of particles were obtained by a scanner GT-X830 manufactured by SEIKO EPSON CORPORATION. The powder X-ray diffraction (XRD) was measured using a desktop X-ray diffraction device MiniFlex300 manufactured by Rigaku Corporation. […] The particle strength was measured using a particle hardness measuring device NEW GRANO manufactured by OKADA SEIKO CO., LTD. […] The purity of a compound was measured by a high performance liquid chromatograph (LC-20A) manufactured by Shimadzu Corporation.

[3] = Sphericity from SEM images (ImageJ); design: key: 1 = true sphere; closer to 1 = more spherical; mean of ≥5 particles
Source text: In the present description, “spherulite” means a crystal aggregate (polycrystal) which has a radial or concentric thin layered structure and has a spherical outer shape. Whether the crystal obtained by the method of the present invention is a spherulite or not can be determined, for example, by observing the outer shape of the crystal using SEM. For example, it can be discriminated by cutting the crystal aggregate and observing the internal structure thereof using SEM. The sphericity of the spherulite obtained by the method of the present invention is usually 0.60 or more, preferably 0.70 or more, more preferably 0.80 or more, particularly preferably 0.90 or more, and most preferably 0.95 or more. The sphericity can be calculated by the following method.
When an image of particles taken by SEM is analyzed using image processing software ImageJ, a coordinate group representing the position of pixels forming the outline of a particle is obtained. The length of the coordinate group is defined as N, and one pixel coordinate of each outline is defined as p[i] (1≤i≤N). The angle between a straight line l(k) connecting two points p[k] and p[k+N/D] and a straight line m(k) connecting two points p[k+N/D] and p[k+2N/D] is defined as θ(k) (−180°<θ<180°) (1≤k≤N, 1≤D≤N). D corresponds to the number of partitions of the outline. When N/D is not a natural number, the value is defined as the quotient obtained by dividing N by D. By calculating this angle with k=1 to N, N pieces of θ value can be obtained.
When the particle is a true sphere, θ(k) is 360/D, and the closer the particle is to a true sphere, the closer θ(k) is to this value. The error between θ(k) and the true value 360/D is evaluated by the root-mean-square error (RMSE) of the following formula:
Using the RMSE value of when D is 10 (θ(k)=36°), the sphericity is defined by the following formula: […]
The sphericity is 1 in a true sphere, and the closer the particle is to a true sphere, the closer the sphericity is to 1. Meanwhile, the sphericity of an ellipse whose long axis is infinitely long is zero. The sphericity is measured for five or more particles to calculate the mean. This mean is defined as the sphericity of each sample (see FIGS. 42 and 43).

[4] = dry particle size distribution, volume based
[5] = SEM image analysis, mean of particles

Compound | sharpness index of the crystal thus obtained ([2]; calculated from d10, d50, d90) | d50 of the crystal thus obtained [2, 4] | sphericity of the spherulite [3, 5] | Particle packing rate [1] | Particle density [1] | further results
COc1ccc2[n-]c([S@@+]([O-])Cc3ncc(C)c(OC)c3C)nc2c1.COc1ccc2[n-]c([S@@+]([O-])Cc3ncc(C)c(OC)c3C)nc2c1.O.O.O.[Mg+2] [Sample 1, esomeprazole magnesium trihydrate] |  |  |  | 54% | 0.74 g/mL | 
COc1ccc2[n-]c([S@@+]([O-])Cc3ncc(C)c(OC)c3C)nc2c1.COc1ccc2[n-]c([S@@+]([O-])Cc3ncc(C)c(OC)c3C)nc2c1.O.O.O.[Mg+2] [Sample 2, esomeprazole magnesium trihydrate] |  |  |  | 64% | 0.87 g/mL | 
COc1ccc2[n-]c([S@@+]([O-])Cc3ncc(C)c(OC)c3C)nc2c1.COc1ccc2[n-]c([S@@+]([O-])Cc3ncc(C)c(OC)c3C)nc2c1.O.O.O.[Mg+2] [Example 10(2), esomeprazole magnesium trihydrate] |  |  |  |  |  | sharpness index of the crystal thus obtained ([2]; calculated from d10, d50, d90, trihydrate): 1.48; d50 of the crystal thus obtained ([2]; dry particle size distribution, volume based, trihydrate): 9.6 μm; d50 ([2]; samples of filtration test (Table 7), trihydrate): 9.6 μm; sphericity of the spherulite ([3]; SEM image analysis, mean of particles, trihydrate): 0.80±0.05; sphericity of the non-spherulite ([3]; non-spherulite crystals, trihydrate): 0.50±0.06
O.O.O.O.O.O.O.O.O=C([O-])[O-].O=C([O-])[O-].O=C([O-])[O-].[La+3].[La+3] [Example 17, lanthanum carbonate octahydrate] |  |  |  |  |  | d50 of the crystal thus obtained [2]: 105 μm; sharpness index of the crystal thus obtained [2]: 1.4; sphericity of the spherulite [3]: 0.69±0.08
COc1ccc2[n-]c([S@@+]([O-])Cc3ncc(C)c(OC)c3C)nc2c1.COc1ccc2[n-]c([S@@+]([O-])Cc3ncc(C)c(OC)c3C)nc2c1.O.O.O.[Mg+2] [Sample 3, esomeprazole magnesium trihydrate] |  |  |  | 88% | 1.21 g/mL | 

Continued, in another order:

sharpness index of the crystal thus obtained ([2]; calculated from d10, d50, d90) | d50 of the crystal thus obtained [2, 4] | sphericity of the spherulite [3, 5] | Compound | Particle packing rate [1] | Particle density [1] | further results
3.77 | 33.5 μm | 0.93±0.04 | Cc1cc(N2CCN([C@@H]3CN[C@H](C(=O)N4CCSC4)C3)CC2)n(-c2ccccc2)n1 [Example 22, teneligliptin hydrobromide hydrate] |  |  | 
2.61 | 61.3 μm | 0.95±0.03 | CCCCCCOC(=O)N=C(N)c1ccc(NCc2nc3cc(C(=O)N(CCC(=O)OCC)c4ccccn4)ccc3n2C)cc1 [Example 24, dabigatran etexilate methanesulfonate] |  |  | 
2.29 | 116 μm | 0.69±0.18 | Cc1cccc(C)c1NC(=O)CC12CCCN1CCC2.Cl [Example 25, pilsicainide hydrochloride anhydride] |  |  | 
1.7 | 133 μm | 0.96±0.02 | COC(=O)[C@H](c1ccccc1Cl)N1CCc2sccc2C1 [Example 16, clopidogrel sulfate] |  |  | 
2.27 | 48.4 μm | 0.85±0.07 | N[C@@H](CCC(=O)N[C@@H](CS)C(=O)NCC(=O)O)C(=O)O [Example 23, glutathione] |  |  | 
